Test results from the supplement of paper PMC10307832.

Tests used:
Assay in all cases: relative viability (nuclei count vs DMSO), 5 days (fraction); higher = more cells survive
IPA-3 = compound: C1=CC=C2C(=C1)C=CC(=C2SSC3=C(C=CC4=CC=CC=C43)O)O [IPA-3]
In short: (§1)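 Viability is treated-well nuclei as a fraction of vehicle-well nuclei, reported as the median across plates. Before counting, lung cancer cell lines were kept overnight at 37 °C in 1536-well plates, pinned with five √10-spaced library-drug doses on vehicle-anchored plates, and left 5 days without medium change, then fixed, permeabilised and Hoechst-stained in one step, imaged at 4× and counted by MetaXpress. A plate passed only if control CV was below 25% and at least one doubling occurred.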

Doramapimod = compound: Cc1ccc(-n2nc(C(C)(C)C)cc2NC(=O)Nc2ccc(OCCN3CCOCC3)c3ccccc23)cc1 [Doramapimod]
In short: as §1

RAF265 = compound: Cn1c(Nc2ccc(C(F)(F)F)cc2)nc2cc(Oc3ccnc(-c4ncc(C(F)(F)F)[nH]4)c3)ccc21 [RAF265]
In short: as §1

Row | Cell Line | relative viability (IPA-3; 0.2 µM) | relative viability (IPA-3; 0.6325 µM) | relative viability (IPA-3; 2 µM) | relative viability (IPA-3; 6.325 µM) | relative viability (IPA-3; 20 µM) | relative viability (Doramapimod; 0.02 µM) | relative viability (Doramapimod; 0.06325 µM) | relative viability (Doramapimod; 0.2 µM) | relative viability (Doramapimod; 0.6325 µM) | relative viability (Doramapimod; 2 µM) | relative viability (RAF265; 0.01 µM) | relative viability (RAF265; 0.03162 µM) | relative viability (RAF265; 0.1 µM) | relative viability (RAF265; 0.3162 µM) | relative viability (RAF265; 1 µM)
1 | NCI-H1651 | 1.18 | 0.952 | 1.03 | 1.02 | 1.08 | 0.938 | 0.934 | 1.03 | 1.1 | 0.968 | 1 | 1 | 0.961 | 0.901 | 0.785
2 | HCC-15 | 1.17 | 0.98 | 0.931 | 0.972 | 0.998 | 0.993 | 0.99 | 0.936 | 0.74 | 0.915 | 0.99 | 1.02 | 1.01 | 0.819 | 0.684
3 | LCLC-103H | 1.12 | 0.962 | 0.876 | 0.99 | 1.07 | 1.02 | 1.01 | 0.887 | 0.988 | 0.929 | 1.01 | 1.05 | 0.919 | 0.78 | 0.72
4 | NCI-H23 | 1.08 | 0.944 | 0.895 | 0.917 | 0.923 | 0.966 | 1.04 | 1.06 | 0.864 | 0.946 | 0.966 | 0.847 | 0.906 | 0.416 | 0.41
5 | NCI-H1792 | 1.32 | 0.794 | 0.952 | 0.809 | 1.08 | 0.954 | 0.869 | 0.971 | 0.913 | 0.715 | 0.893 | 0.73 | 0.648 | 0.246 | 0.249
6 | NCI-H596 | 0.934 | 0.989 | 0.977 | 1.13 | 1.2 | 1.02 | 1.12 | 0.957 | 0.92 | 0.984 | 1.28 | 0.987 | 1.07 | 1.03 | 0.829
7 | NCI-H1563 | 1.09 | 0.959 | 1.01 | 1.1 | 1.17 | 0.996 | 0.996 | 1.11 | 1.28 | 1.06 | 1.06 | 1.05 | 1.01 | 1.03 | 0.932
8 | NCI-H460 | 1.2 | 0.967 | 0.921 | 0.945 | 0.993 | 0.994 | 0.999 | 1.04 | 1.05 | 0.972 | 1.02 | 0.968 | 1.09 | 0.971 | 0.965
9 | HCC-366 | 1.04 | 0.976 | 0.98 | 1.03 | 1.05 | 0.951 | 0.979 | 1 | 1.04 | 0.99 | 1.03 | 0.99 | 1.06 | 0.975 | 0.947
10 | NCI-H2085 | 1.07 | 0.957 | 1.01 | 0.933 | 1.18 | 1.04 | 0.975 | 1.01 | 1.01 | 0.966 | 1.04 | 0.904 | 1.05 | 0.915 | 0.97
11 | NCI-H2342 | 1.07 | 1.08 | 0.975 | 1.11 | 1.14 | 1.05 | 0.918 | 0.998 | 1.09 | 0.933 | 0.937 | 1.06 | 1.04 | 0.895 | 0.85
12 | PC-14 | 1.16 | 0.963 | 0.936 | 0.898 | 1.09 | 1.06 | 0.998 | 0.968 | 1.14 | 0.933 | 1.02 | 0.967 | 1.1 | – | 0.845
13 | HOP-62 | 1.08 | 0.925 | 0.986 | 1 | 1.09 | 1.02 | 1.06 | 1.08 | 0.931 | 0.975 | 1.12 | 0.989 | 0.952 | 1 | 0.834
14 | NCI-H2087 | 1.33 | 0.87 | 0.89 | 0.935 | 1.13 | 1.05 | 0.975 | 1.14 | 1.01 | 1 | 1.04 | 0.796 | 0.796 | 0.617 | 0.639
15 | NCI-H1793 | 1.14 | 0.768 | 0.884 | 1.09 | 1.04 | 0.894 | 0.843 | 0.896 | 0.94 | 0.884 | 1.1 | 0.856 | 0.731 | 0.321 | 0.48
16 | PC-3 [JPC-3] | 1.09 | 1.07 | 1.01 | 0.96 | 1 | 1.15 | 1.11 | 1.1 | 1.13 | 0.904 | 1.07 | 1 | 1.12 | 0.488 | 0.743
17 | H3255 | 1 | 0.973 | 0.895 | 0.986 | 1.22 | 1.05 | 0.981 | 0.96 | 0.968 | 0.933 | 1 | 1.05 | 1.03 | – | 0.67
18 | EMC-BAC-2 | 1.02 | 1.05 | 1 | 1.02 | 1.09 | 1 | 1.2 | 1.01 | 0.954 | 0.863 | 0.94 | 0.885 | 0.639 | 0.467 | 0.236

Row | Cell Line | relative viability (IPA-3; 0.2 µM) | relative viability (IPA-3; 0.6325 µM) | relative viability (IPA-3; 2 µM) | relative viability (IPA-3; 6.325 µM) | relative viability (IPA-3; 20 µM) | relative viability (Doramapimod; 0.02 µM) | relative viability (Doramapimod; 0.06325 µM) | relative viability (Doramapimod; 0.2 µM) | relative viability (Doramapimod; 0.6325 µM) | relative viability (Doramapimod; 2 µM) | relative viability (RAF265; 0.01 µM) | relative viability (RAF265; 0.03162 µM) | relative viability (RAF265; 0.1 µM) | relative viability (RAF265; 0.3162 µM) | relative viability (RAF265; 1 µM)
19 | NCI-H522 | 1.05 | 0.889 | 0.978 | 1.07 | 1.08 | 0.946 | 0.978 | 0.79 | 0.925 | 0.86 | 1.15 | 1.1 | 0.941 | 0.812 | 0.961
20 | CAL-12T | 1.15 | 0.846 | 0.967 | 0.93 | 1.03 | 0.995 | 0.976 | 1.03 | 1.01 | 0.931 | 1.08 | 0.955 | 0.936 | 0.723 | 0.603
21 | NCI-H650 | 1.2 | 0.977 | 0.861 | 1.03 | 1.12 | 0.965 | 1.02 | 1.11 | 0.901 | 0.913 | 1.07 | 0.845 | 0.969 | 0.615 | 0.51
22 | SK-MES-1 | 1.08 | 0.97 | 1.07 | 0.923 | 1.02 | 1.01 | 0.934 | 0.95 | 1.05 | 0.926 | 1.03 | 0.805 | 0.634 | 0.441 | 0.283
23 | EBC-1 | 1.29 | 0.984 | 1.01 | 0.963 | 0.933 | 0.949 | 0.987 | 0.991 | 1.03 | 0.838 | 1.05 | 0.966 | 0.939 | 0.794 | 0.611
24 | NCI-H1355 | 1.11 | 0.98 | 0.988 | 0.965 | 0.98 | 1.02 | 0.984 | 0.939 | 1.03 | 0.86 | 1 | 0.943 | 0.895 | 0.72 | 0.441
25 | NCI-H838 | 1.08 | 0.942 | 0.972 | 0.969 | 1.1 | 0.993 | 1.02 | 1.06 | 1.05 | 0.949 | 0.981 | 1 | 0.973 | 0.93 | 0.773
26 | LK-2 | 1.06 | 1.03 | 0.995 | 1.01 | 1.19 | 0.909 | 0.981 | 0.926 | 0.741 | 0.849 | 0.963 | 1 | 1.09 | 1.07 | 0.714
27 | NCI-H1650 | 1.13 | 0.787 | 0.931 | 1.01 | 1 | 0.998 | 0.99 | 1.17 | 1.2 | 0.966 | 1.09 | 0.904 | 1.11 | 0.75 | 0.765
28 | IA-LM | 1.15 | 0.758 | 1.03 | 0.876 | 0.892 | 0.921 | 0.977 | 0.906 | 0.982 | 0.913 | 0.941 | 0.855 | 0.91 | 0.801 | 0.755
29 | NCI-H1703 | 1.27 | 0.86 | 1.02 | 0.935 | 1.04 | 0.923 | 0.918 | 0.876 | 1.11 | 0.612 | 0.783 | 0.792 | 0.831 | 0.652 | 0.352
30 | NCI-H322M | 1.01 | 0.902 | 1.02 | 1.03 | 1 | 1.05 | 0.993 | 0.998 | 1.3 | 0.937 | 1.04 | 1 | 0.597 | 0.38 | 0.282
31 | NCI-H661 | 1.09 | 0.951 | 0.984 | 1 | 1.01 | 0.978 | 1.02 | 0.995 | 1.06 | 0.915 | 1.01 | 0.962 | 0.774 | 0.643 | 0.57
32 | NCI-H2228 | 1.44 | 0.864 | 1.04 | 1.05 | 1.02 | 1.13 | 0.988 | 1.02 | 1.07 | 0.795 | 0.967 | 0.89 | 0.926 | 0.498 | 0.309
33 | NCI-H1395 | 1.04 | 0.947 | 0.879 | 0.918 | 1.04 | 1.01 | 1.18 | 1.07 | 0.94 | 0.831 | 1.03 | 0.866 | 0.899 | 0.774 | 0.689
34 | NCI-H520 | 1.07 | 0.888 | 0.916 | 1.03 | 0.929 | 0.943 | 0.933 | 0.941 | 0.88 | 0.868 | 1.11 | 0.869 | 1.03 | 1.02 | 0.614
35 | NCI-H441 | 1.37 | 0.951 | 0.896 | 1.04 | 0.915 | 0.999 | 0.845 | 1.08 | 1.06 | 0.859 | 1.01 | 0.928 | 1.08 | 0.78 | 0.753
